Literature values as cited in patent publication US20090012101A1, “Mucarinic Agonists and Methods of Use Thereof” (UNIVERSITY OF TOLEDO, priority 2005, published 2009).

How the values were obtained:
[1] = preclinical studies
M2 receptors = target: T1, M2 receptors (Homo sapiens, UniProt P08172)
T1 sequence (P08172 1-466): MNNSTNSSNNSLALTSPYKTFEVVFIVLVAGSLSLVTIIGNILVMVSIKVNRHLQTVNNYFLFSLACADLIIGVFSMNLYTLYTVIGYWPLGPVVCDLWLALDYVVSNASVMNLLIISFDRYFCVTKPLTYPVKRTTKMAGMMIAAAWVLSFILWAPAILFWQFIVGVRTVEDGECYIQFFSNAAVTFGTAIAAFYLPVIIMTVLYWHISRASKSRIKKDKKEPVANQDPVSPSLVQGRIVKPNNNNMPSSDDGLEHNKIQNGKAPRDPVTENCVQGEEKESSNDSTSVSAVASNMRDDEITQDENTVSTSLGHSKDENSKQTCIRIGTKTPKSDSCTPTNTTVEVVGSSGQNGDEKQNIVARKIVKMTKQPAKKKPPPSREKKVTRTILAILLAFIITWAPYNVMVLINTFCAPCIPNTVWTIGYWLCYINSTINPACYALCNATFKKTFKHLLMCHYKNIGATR

M4 receptors = target: T2, M4 receptors (Homo sapiens, UniProt P08173)
T2 sequence (P08173 1-479): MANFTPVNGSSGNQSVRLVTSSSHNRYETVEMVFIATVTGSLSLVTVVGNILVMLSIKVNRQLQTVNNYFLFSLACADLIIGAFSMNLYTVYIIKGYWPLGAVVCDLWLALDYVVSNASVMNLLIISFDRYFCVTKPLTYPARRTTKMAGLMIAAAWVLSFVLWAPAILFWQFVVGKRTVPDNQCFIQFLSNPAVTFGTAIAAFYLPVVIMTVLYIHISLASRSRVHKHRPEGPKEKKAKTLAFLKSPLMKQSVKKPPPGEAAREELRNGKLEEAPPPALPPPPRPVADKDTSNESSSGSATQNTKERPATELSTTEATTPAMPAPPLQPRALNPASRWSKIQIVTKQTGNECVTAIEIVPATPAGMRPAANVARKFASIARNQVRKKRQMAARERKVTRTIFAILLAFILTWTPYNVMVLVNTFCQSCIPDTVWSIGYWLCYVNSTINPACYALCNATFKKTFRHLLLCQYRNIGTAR

SMILES | antipsychotic activity [1] | agonist activity at M2 receptors (M2 receptors) | agonist activity at M4 receptors (M4 receptors) | unwanted side effects associated with activation of M3 receptors | effect on psychiatric symptoms such as hallucinations (phase II clinical trials, Alzheimer's patients)
CCCCSc1nsnc1[C@H]1CN2CCC[C@H]1C2 [BuTAC, (5R,6R)-6-(3-butylthio-1,2,5-thiadiazol-4-yl)-1-azabicyclo[3.2.1]octane] | strong antipsychotic activity | partial agonist activity | partial agonist activity | – | –
CCCCCCOc1nsnc1C1=CCCN(C)C1 [xanomeline] | – | – | – | salivation, diarrhea and profuse sweating | significantly improved psychiatric symptoms
